The SangsterLogP compilation

Assay: method code SF-AS, from PMID: 6637502
Settings: pH 5.0

Row | Compound | logD
1 | CC1CCCc2nc3c(c(=O)n21)CCCC3 (configuration not stated) | 1.67
2 | CC1CCCn2c1nc1c(c2=O)CCCC1 (configuration not stated) | 1.76
3 | Cc1cccn2c(=O)c3c(nc12)CCCC3 | 2.44
4 | Cc1cnc2n(c1=O)C(C)CCC2 (configuration not stated) | 0.82
5 | O=c1c2c(nc3n1CCCCC3)CCC2 | 1.25
6 | Cc1nc2n(c(=O)c1C)CCCC2 | 0.6
7 | Cc1ccc2nccc(=O)n2c1 | 0.61
8 | O=c1c2ccccc2nc2n1CCCCC2 | 1.98
9 | O=c1c2c(nc3n1CCC3)CCC2 | 0.22
10 | Cc1cnc2n(c1=O)CCCC2 | 0.4
11 | Cc1ccc2nc3c(c(=O)n2c1)CCCC3 | 2.07
12 | Cc1cccc2nc3c(c(=O)n12)CCCC3 | 1.91
13 | CC1CCc2nc3c(c(=O)n2C1)CCCC3 (configuration not stated) | 1.7
14 | Cc1ccn2c(=O)c3c(nc2c1)CCCC3 | 1.86
15 | O=c1c2c(nc3n1CCCCC3)CCCCC2 | 2.18
16 | CC1CCn2c(nc3c(c2=O)CCCC3)C1 (configuration not stated) | 1.67
17 | Cc1ccc2nc3c(c(=O)n2c1)CCC3 | 1.61
18 | O=c1c2c(nc3ccccn13)CCCC2 | 1.63
19 | Cc1cccc2nc3c(c(=O)n12)CCC3 | 1.77
20 | Cc1cccn2c(=O)ccnc12 | 0.79
21 | Cc1ccn2c(=O)ccnc2c1 | 0.56
22 | Cc1ccn2c(=O)c3c(nc2c1)CCC3 | 1.65
